We go through one compound from patent US8188148B2, “Substituted 1,3-diphenylpropane derivatives, preparations and uses thereof” (Genfit, priority 2006, dated 2012).

Structures are written as SMILES.

The subject of test [1] is C57BI6 mouse. The test is described as follows: In vivo evaluation on C57BI6 mouse: body weight and plasma lipids. To be noted: C57BI6 mouse, 3, 10, and 30 mpk per os, 14 days, vs control. As for the experimental part: The effect of the compounds according to the invention is evaluated in vivo on the C57BI6 mouse by measuring the body weight evolution, the plasma HDL cholesterol and triglyceride levels, after 14 days of a per os treatment with the compounds according to the invention.
Female C57BI6 mice were kept on a 12 hour/12 hour light/dark cycle at a constant temperature of 20±3° C. After a one week acclimatization period, the mice were weighed and divided into groups of 6 animals selected such as the distribution of body weight and of plasma lipid rate, determined before the experiment, was uniform. The tested compounds were suspended in carboxymethylcellulose (Sigma C4888) and administered to the animals by gastric gavage, once a day for 14 days at the chosen doses. The animals had free access to food and water (standard diet). Taking of food and weight gain are recorded throughout the experiment. At the end of the experiment, after a 4 hour fast, the animals were anesthetized and a blood sample was taken on anticoagulant (EDTA). Then the mice were weighed and euthanized. The plasma was separated by centrifugation at 3000 rotations/minute for 20 minutes. The samples were kept at +4° C. Hepatic tissue samples were removed, frozen in liquid nitrogen, and then kept at −80° C. for later analyses.
Low-density lipoproteins (VLDL and LDL) are precipitated by Phosphotungstate. The precipitate is eliminated by centrifugation. HDL-cholesterol present in the supernatant is measured by enzymatic assays (bioMérieux-Lyon-France) in accordance with the provider's recommendations.
Plasma triglyceride concentrations were measured by enzymatic assays (bioMérieux-Lyon-France) according to the provider's recommendations.

Test [2] deals with db/db mouse. Description: In vivo evaluation on db/db mouse: body weight, glycemia, insulinemia, plasma lipids. To be noted: 50 mpk per os, 28 days. As for the experimental part: The effect of the compounds according to the invention is evaluated in vivo on the db/db mouse by measuring the body weight evolution, the glucose levels, the insulin levels, the plasma total cholesterol and triglyceride levels, and by analyzing the distribution of cholesterol in different plasma lipoprotein fractions, after 28 days of a per os treatment with compounds according to the invention.
Female db/db mice were kept on a 12 hour/12 hour light/dark cycle at a constant temperature of 20±3° C. After a one week acclimatization period, the mice were weighed and divided into groups of 8 animals selected so as to render uniform the distribution of their body weights and their plasma lipid rates, determined before the experiment. The tested compounds were suspended in carboxymethylcellulose (Sigma C4888) and administered intra-gastric tube feeding once a day for 28 days at the chosen dose. The animals had free access to food and water (standard diet). Taking of food and weight gain are recorded throughout the experiment. At the end of the experiment, the animals were anesthetized after a 4 hour fast, a blood sample was taken using (EDTA) anticoagulant, then the mice were weighed and euthanized. The plasma was separated by centrifugation at 3000 rotations/minute for 20 minutes. The samples were kept at +4° C. The hepatic tissue and skeletal muscle tissue samples were taken and frozen immediately in liquid nitrogen then conserved at −80° C. for later analysis.
Murine plasma glucose is measured out according to an enzyme-colorimetric method using a Glucose RTU kit (Biomérieux). Glucose is transformed into gluconic acid under the action of glucose oxidase; the reaction releases hydrogen peroxide. Hydrogen peroxide is measured according to the Trinder reaction which, under the action of a peroxidase and in the presence of phenol and amino-4-antipyrine, produces water and a colored product, quinoneimine. The color intensity, due to the quinoneimine, is proportional to the amount of glucose present in the sample.
Murine insulin is measured using ELISA method (using the INSKR020 kit from provider Crystal chem.). A microplate is coated with a mouse anti-insulin antibody. Then, the serum to be assayed for insulin is placed onto the plate. A guinea pig anti-insulin antibody is used to recognize the complex formed by the mouse insulin and the anti-insulin monoclonal antibody. Finally an anti-guinea pig antibody labeled with peroxidase is added and bind to the guinea pig anti-insulin antibody. The colorimetric reaction is performed by adding an OPD (ortho phenyl diamine) enzyme substrate. The intensity of the color is proportional to the amount of insulin present in the sample.
Plasma lipid concentrations (total cholesterol and triglycerides) are measured by enzymatic assays (bioMérieux-Lyon-France) according to the provider's recommendations.
The different lipid fractions (VLDL, LDL, HDL) in the plasma were separated using gel-filtration chromatography. Cholesterol concentrations were then measured for each fraction by enzymatic assays (bioMérieux-Lyon-France) according to the provider's recommendations.

As to `Cc1cc(CCC(=O)c2ccc(OC(F)(F)F)cc2)cc(C)c1OC(C)(C)C(=O)O` [Compound 1, 2-[2,6-dimethyl-4-[3-[4-(trifluoromethyloxy)phenyl]-3-oxo-propyl]phenoxy]-2-methyl-propanoic acid], in test [1], the body weight gain result is “weight loss”, the “plasma HDL-cholesterol” value is reported as “very significantly increased” and the plasma triglycerides result is “very significantly diminished”. Further, in test [2], the “HDL-cholesterol fraction (distribution of cholesterol in plasma lipoprotein fractions)” value is recorded as “significant increase”, the “glycemia (plasma glucose)” value was “significantly reduced” and the “insulinemia (plasma insulin)” value is recorded as “significantly reduced”. In addition, in test [2] (vs control), the body weight gain result was “weight loss”, the “plasma free fatty acids” value was “very significantly decreased”, the plasma triglycerides entry was “very significantly decreased” and the total plasma cholesterol result was “significantly increased”.
